Data taken from patent publication US10722496B2, “2-iminobiotin for use in the treatment of brain cell injury” (Neurophyxia B.V., priority 2015, dated 2020).

Key:
Type in all cases: cell-based, human
[1] = system: cell stress associated proteins; test: Cell stress proteome profiler array; details: for ADAMTS1 mean densitometric intensity / Bcl-2 mean densitometric intensity / CA IX mean densitometric intensity / COX-2 mean densitometric intensity / Cited 2 mean densitometric intensity / Cytochrome C mean densitometric intensity / Dkk-4 mean densitometric intensity / FABP-1 mean densitometric intensity / HIF1a mean densitometric intensity / HIF2a mean densitometric intensity / HSP60 mean densitometric intensity / HSP70 mean densitometric intensity / IDO mean densitometric intensity / NFkB1 mean densitometric intensity / PON1 mean densitometric intensity / PON2 mean densitometric intensity / PON3 mean densitometric intensity / PP53 mean densitometric intensity / SIRT2 mean densitometric intensity / SOD2 mean densitometric intensity / Thioredoxin-1 mean densitometric intensity / p21/CIP1 mean densitometric intensity / p27 mean densitometric intensity / pHSP-27 mean densitometric intensity / pJNK mean densitometric intensity / pp38a mean densitometric intensity: 2-IB (30 ng/ml)
Experimental: (§1) In vitro hypoxia was induced in the cell cultures by using our recently described system with minor modifications (Huang et al., 2013b; Weber et al., 2015; Zitta et al., 2010). Enzyme stock solutions (100×) of catalase and glucose oxidase (both from Sigma-Aldrich) were prepared in cell culture medium (DMEM/F12, 1% FCS; final concentration: 120 U/ml and 2 U/ml respectively; Sigma-Aldrich) leading to a decrease of partial pressure of oxygen (pO2) below 10 mmHg within 5 minutes. Hypoxic conditions were confirmed by using a tissue oxygen pressure monitor (LICOX® CMP Oxygen Catheter; Integra, Plainsboro, USA). After 7 hours of hypoxia, the cells were washed twice with PBS (PAA) and fresh normoxic medium supplemented with solvent (citrate buffer 1%) or 2-IB (10, 30, 50, 100 and 300 ng/mL) was added to the cells. Investigations of cell damage, metabolic activity, ROS, hydrogen peroxide, nitrite/nitrate production, erkl/2, akt and stat5 phosphorylation as well as cell stress protein expression were performed with cell culture media or cell protein (FIG. 1).
Proteome profiling was performed using commercially available cell stress proteome profiler arrays (R&D Systems, Minneapolis, USA) and the manufacturer's protocol provided with the assay kit. Equal amounts (50 μg) of protein from each experiment (N=4) were pooled and applied to the respective array membrane. Expression levels of 26 cell stress associated proteins were evaluated by densitometric analyses of the arrays using the ImageJ 1.410 software (ImageJ, NIH, USA).

erkl/2 = test: Western blotting, erkl/2 phosphorylation; details: 30 ng/ml 2-IB
Experimental: as §1, with “Investigations of cell damage, metabolic activity, ROS, hydrogen peroxide, nitrite/nitrate production, erkl/2, akt and stat5 phosphorylation as well as cell stress protein expression were performed with cell culture media or cell protein (FIG. 1).” left out
Protein extraction was performed using RIPA buffer containing 150 mM sodium chloride, 1% NP-40, 1% sodium deoxycholate, 0.1% sodium dodecyl sulfate (SDS) and 50 mM Tris-HCl buffer (pH 7.6; all from Sigma-Aldrich) or alternatively M-PER buffer (Mammalian Protein Extraction Reagent; Pierce, Ill., USA). Protein concentrations were determined with Roti®-Quant assays (Carl Roth) and samples were stored at −20° C. until use. […] Images were taken and densitometrically analyzed with the software ImageJ (v1.41o, NIH).

IMR-32 cell cultures = test: Hydrogen peroxide after hypoxia under mild hypothermia; details: post-hypoxic application
Experimental: In-vitro hypoxia was induced for 7 hours using IMR-32 cell cultures. After the hypoxic insult, cultures were subjected to 25 hours of mild hypothermia (33.5° C.) and were incubated with or without 2-IB (10, 30, 50, 100 and 300 ng/ml). Cell morphology was evaluated by brightfield microscopy and cell damage was analyzed by LDH assays. Production of reactive oxygen species (ROS) was measured using fluorometric assays. Western blotting for PARP and phosphorylated as well as unphosphorylated akt and erkl/2 was performed.

[2] = 30 ng/ml 2-IB after the hypoxic insult, of 26 proteins

For `N=C1N[C@H]2[C@H](CS[C@H]2CCCCC(=O)O)N1` [2-IB, 2-iminobiotin], the “cell stress associated proteins down regulated after hypoxia” value [1, 2] was 3/26, the “cell stress associated proteins unchanged after hypoxia” value [1, 2] was 4/26 and the “cell stress associated proteins up regulated after hypoxia” value [1, 2] was 19/26. The “investigated stress proteins up regulated” value ([1]; 30 ng/ml 2-IB for 4 hours post hypoxia) was 73%, the “ADAMTS1 mean densitometric intensity” value ([1]; Hypoxia) was 9.23 and the “Bcl-2 mean densitometric intensity” value ([1]; Hypoxia) was 42.62. For the same compound, the “CA IX mean densitometric intensity” value ([1]; Hypoxia) was 23.02, the “COX-2 mean densitometric intensity” value ([1]; Hypoxia) was 13.79 and the “Cited 2 mean densitometric intensity” value ([1]; Hypoxia) was 67.91. The “Cytochrome C mean densitometric intensity” value ([1]; Hypoxia) was 108.04, the “Dkk-4 mean densitometric intensity” value ([1]; Hypoxia) was 3.47 and the “FABP-1 mean densitometric intensity” value ([1]; Hypoxia) was 9.02. For the same compound, the “HIF1a mean densitometric intensity” value ([1]; Hypoxia) was 47.93, the “HIF2a mean densitometric intensity” value ([1]; Hypoxia) was 0.00 and the “HSP60 mean densitometric intensity” value ([1]; Hypoxia) was 150.57. For the same compound, the “HSP70 mean densitometric intensity” value ([1]; Hypoxia) was 170.82, the “IDO mean densitometric intensity” value ([1]; Hypoxia) was 0.00 and the “NFkB1 mean densitometric intensity” value ([1]; Hypoxia) was 8.63. The “PON1 mean densitometric intensity” value ([1]; Hypoxia) was 0.00, the “PON2 mean densitometric intensity” value ([1]; Hypoxia) was 20.16 and the “PON3 mean densitometric intensity” value ([1]; Hypoxia) was 0.00. The “PP53 mean densitometric intensity” value ([1]; Hypoxia) was 11.92, the “SIRT2 mean densitometric intensity” value ([1]; Hypoxia) was 171.53 and the “SOD2 mean densitometric intensity” value ([1]; Hypoxia) was 203.11. The “Thioredoxin-1 mean densitometric intensity” value ([1]; Hypoxia) was 147.57, the “p21/CIP1 mean densitometric intensity” value ([1]; Hypoxia) was 51.41 and the “p27 mean densitometric intensity” value ([1]; Hypoxia) was 4.67. For the same compound, the “pHSP-27 mean densitometric intensity” value ([1]; Hypoxia) was 1.65, the “pJNK mean densitometric intensity” value ([1]; Hypoxia) was 48.63 and the “pp38a mean densitometric intensity” value ([1]; Hypoxia) was 3.52. For the same compound, the “ADAMTS1 mean densitometric intensity” value ([1]; Normoxia) was 10.32, the “Bcl-2 mean densitometric intensity” value ([1]; Normoxia) was 32.27 and the “CA IX mean densitometric intensity” value ([1]; Normoxia) was 0.00. The “COX-2 mean densitometric intensity” value ([1]; Normoxia) was 8.91, the “Cited 2 mean densitometric intensity” value ([1]; Normoxia) was 44.07 and the “Cytochrome C mean densitometric intensity” value ([1]; Normoxia) was 84.87. The “Dkk-4 mean densitometric intensity” value ([1]; Normoxia) was 2.81, the “FABP-1 mean densitometric intensity” value ([1]; Normoxia) was 6.67 and the “HIF1a mean densitometric intensity” value ([1]; Normoxia) was 62.15. For the same compound, the “HIF2a mean densitometric intensity” value ([1]; Normoxia) was 0.00, the “HSP60 mean densitometric intensity” value ([1]; Normoxia) was 121.73 and the “HSP70 mean densitometric intensity” value ([1]; Normoxia) was 139.78. The “IDO mean densitometric intensity” value ([1]; Normoxia) was 0.00, the “NFkB1 mean densitometric intensity” value ([1]; Normoxia) was 6.09 and the “PON1 mean densitometric intensity” value ([1]; Normoxia) was 0.00. The “PON2 mean densitometric intensity” value ([1]; Normoxia) was 8.83, the “PON3 mean densitometric intensity” value ([1]; Normoxia) was 0.00 and the “PP53 mean densitometric intensity” value ([1]; Normoxia) was 8.64. The “SIRT2 mean densitometric intensity” value ([1]; Normoxia) was 148.80, the “SOD2 mean densitometric intensity” value ([1]; Normoxia) was 181.53 and the “Thioredoxin-1 mean densitometric intensity” value ([1]; Normoxia) was 126.34. For the same compound, the “p21/CIP1 mean densitometric intensity” value ([1]; Normoxia) was 43.13, the “p27 mean densitometric intensity” value ([1]; Normoxia) was 4.51 and the “pHSP-27 mean densitometric intensity” value ([1]; Normoxia) was 0.79. For the same compound, the “pJNK mean densitometric intensity” value ([1]; Normoxia) was 39.24, the “pp38a mean densitometric intensity” value ([1]; Normoxia) was 4.72 and the “phosphorylation of erkl/2” value (erkl/2) was “did not influence”. For the same compound, the “generation of hydrogen peroxide” value (IMR-32 cell cultures) was “did not influence generation of hydrogen peroxide”.
